Test results as given in patent publication US20230365570A1, “COMPOUNDS WITH GLUCOCORTICOID SPARING EFFECTS AND USES THEREOF” (The Regents of the University of California, priority 2020, published 2023).

Assays:
THP-1 cells [1] = assay: IL-1ß stimulated TNF release by THP-1 cells; type: cell-based, human; details: THP-1 cells, IL-1ß 2 ng/ml, overnight (FIG. 3D)
Experimental: (§1) THP-1 cells (10^5 cells/200 μL/well) and RA FLS (104/200 μL/well) were plated in 96 well plates and pre-treated with compound or vehicle for 1 h and then stimulated with either LPS (10 ng/ml), 1L-1ß (2 ng/ml) or TNF (2 ng/ml for THP-1 and 1 ng/ml for RA FLS). After 18 h of incubation, supernatants were collected and the levels of cytokines and chemokines in the culture supernatants were measured by ELISA according to the manufacturer's protocols (R&D systems, Minneapolis, MN).
The lead compounds belonging to chemotypes 1, 3, and 5 were tested for potency in suppressing chemokine and cytokine production by THP-1 cells in the presence of different inflammatory stimuli. The production of CXCL8 induced by either LPS (10 ng/ml), IL-1ß (2 ng/ml), or TNF (2 ng/ml) and TNF induced by IL-1ß (2 ng/ml) was assessed using serially diluted compounds. The compounds except 1-2 reduced the level of CXCL8 production stimulated by LPS in a dose dependent manner (FIG. 3A). However, the compounds from chemotype 5 enhanced CXCL8 release by THP-1 cells when stimulated with IL-111, or TNF (FIGS. 3B, C). […] The 1Cs0 for 1-1, 1-2 and 3-1 for IL-1ß stimulated CXCL8 release included 400, 1770, and 2020 nM, respectively, (FIG. 3C).

[2] = biological target: metabotropic glutamate receptor subtype 4 (mGluR4) (Homo sapiens, UniProt Q14833); details: previously described in another system; cited from earlier work
Chain of metabotropic glutamate receptor subtype 4 (mGluR4) (Q14833 33-912): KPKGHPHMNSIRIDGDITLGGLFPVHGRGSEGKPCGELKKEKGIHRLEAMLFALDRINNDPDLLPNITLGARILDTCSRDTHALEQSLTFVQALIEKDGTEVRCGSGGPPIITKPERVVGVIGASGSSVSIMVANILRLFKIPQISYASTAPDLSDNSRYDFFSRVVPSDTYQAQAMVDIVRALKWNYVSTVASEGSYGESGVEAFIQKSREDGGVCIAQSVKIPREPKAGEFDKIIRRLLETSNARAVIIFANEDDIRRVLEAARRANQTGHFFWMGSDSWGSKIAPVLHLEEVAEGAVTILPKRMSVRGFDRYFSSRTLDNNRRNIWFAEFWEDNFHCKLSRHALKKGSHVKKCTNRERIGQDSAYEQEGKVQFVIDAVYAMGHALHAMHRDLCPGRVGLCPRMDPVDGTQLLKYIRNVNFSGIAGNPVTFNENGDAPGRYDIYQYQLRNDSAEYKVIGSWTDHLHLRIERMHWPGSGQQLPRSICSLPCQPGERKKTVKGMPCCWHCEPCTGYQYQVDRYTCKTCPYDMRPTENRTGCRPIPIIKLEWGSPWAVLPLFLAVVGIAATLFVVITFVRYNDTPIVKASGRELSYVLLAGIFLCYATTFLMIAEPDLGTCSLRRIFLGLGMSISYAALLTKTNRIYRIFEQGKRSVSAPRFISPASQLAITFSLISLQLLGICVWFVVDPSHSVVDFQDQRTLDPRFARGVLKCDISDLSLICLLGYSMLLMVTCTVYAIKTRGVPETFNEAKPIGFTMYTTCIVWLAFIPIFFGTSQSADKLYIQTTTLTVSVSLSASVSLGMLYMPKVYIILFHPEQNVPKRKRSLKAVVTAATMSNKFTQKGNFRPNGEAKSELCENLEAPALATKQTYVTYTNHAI

THP-1 cells [3] = assay: Combination and synergy of compounds with DEX, CXCL8 release by TNF stimulated THP-1 cells; type: cell-based, human
Experimental: Drug synergy analysis was performed using lsobologram plots which were calculated according to reported procedures to compute IC50 and determine synergism. IC50 is computed from the median effect equation. Synergism analysis is carried out using the Combination index (Cl)-isobol method. Data analysis was performed using the CompuSyn software available on combisyn.com, Detailed methodology was used as described in a prior report. Briefly, the median-effect equation is computed to obtain the linear regression for the effect of inhibitors DEX and 1−1 as Fa/Fu=(D/D50)^m, where D is the dose; Fa and Fu is the fraction of the inhibition and uninhibited response by the dose D (Fa+Fu=1); D50 is the dose producing the median effect (i.e, IC50). The constant m determines the shape of the dose-effect curve. The median-effect equation in logarithmic form is log (Fa/Fu) =m log(D)−m log (D50) which essentially represents a linear relationship between log(Fa/Fu) and log(D). […] This is followed by Cl-isobol method to quantitatively assess the synergism between these inhibitor drugs. A combination index (Cl) is estimated from dose-effect data of single and combined drug treatments. A value of C; less than one indicates synergism; Cl=1 indicates additive effect; and Cl>1 indicates antagonism. Drug interaction (synergism or antagonism) is more pronounced the further a CI value is from 1. […] The doses Dx1 and Dx2 were estimated from the median effect equation above for single drug treatments. From the median effect equation, the estimated dose (i.e., D) necessary to produce the inhibition (i.e., Fa, Fu) obtained by the combination was calculated. The results are presented as a normalized isobolograrn. A point in the isobologram represents the effect of a drug(s) treatment.
To assess whether the remaining candidate compounds would provide additional benefit to a low dose of glucocorticoid, THP-1 cells were stimulated with TNF and treated them with serially diluted compounds and 100 nM DEX (FIGS. 4A-C). […] Next whether there was an additive or synergistic effect with these three compounds and DEX was formally addressed. […] The four CXCL8 levels below the maximum plateau were used to calculate an isobologram (FIG. 5D).

THP-1 cells [4] = assay: CXCL8 production by LPS stimulated THP-1 cells (ELISA); type: cell-based, human; details: LPS 10 ng/ml, purchased compound, mean LPS CXCL8 201.1 pg/ml = 100%
Experimental: as §1
The 122 hit compounds underwent additional screening and were evaluated for their effects on cell viability and the ability to suppress production of an NF-κB-associated chemokine, CXCL8 (IL-8) by LPS stimulated THP-1 cells (FIG. 2D). The cells were also examined for viability after 24 h of stimulation by MTT assay (FIG. 2E).
Three of the eleven chemotypes were excluded based on the potential for them to be Michael acceptors, In many cases α,β-unsaturated carbonyls such as those found in these chemotypes can form adducts with thiols, especially under physiological conditions (pH=6-8), reducing the in vivo efficacy. Also, Michael acceptors are often […] IKKß inhibitors and thereby inhibit NF-KB response. […]

THP-1 cells [5] = assay: Cell viability by MTT assay in THP-1 cells; type: cell-based, human; details: purchased compound
Experimental: Two types of tetrazolium were used for viability assays. […] After 18 h of incubation, 0.5 mg/ml 3[4,5-dimethylthiazol-2-yl]-2,5-dipheyl tetrazolium bromide (MTT; Thermo Fisher Scientific) in assay media was added to each well at a final concentration of (0.5 mg/ml) and further incubated for 4-6 h. The absorbances at 570 and 650 nm were measured by a Tecan Infinite M200 plate reader, For RA FLS, the cells were dispersed into 96-well flat bottom plates (104/200 μL/well) and incubated overnight. The next day, RA FLS were treated with 5 μM of each compound for 18 h of incubation. Ten μl of WST-8 [2-(2-methoxy-4-nitrophenyl)-3-(4-nitrophenyl)-5-(2,4-disulfophewnyl)-2H-tetrazolium, monosodium salt] solution was added to each well and the cells were further incubated for 2-4 h. The absorbance was measured at 450 nm with Bio-Rad iMark plate reader (Bio-Rad Laboratories Inc., Hercules, CA, Unites States).

IC50 (THP-1 cells [1]): 190 nM
IC50 (THP-1 cells [3]; TNF stimulated THP-1 cells, single agents (FIG. 5A), read-out: IC50 for TNF stimulated CXCL8 release (titration with DEX)): 968 nM
SMILES: Cc1ccc(-n2ncc3c(NC4CCCCC4)ncnc32)c(C)c1 [Compound 1-1]
Modulation of mGluR4 [2]: positive allosteric modulator
Effect of addition of DEX on CXCL8 production (THP-1 cells [3]; TNF 2 ng/ml stimulated THP-1 cells, serially diluted compound plus 100 nM DEX (FIGS. 4A-C)): significantly reduced the CXCL8 production at all of the effective doses
Synergy with DEX, isobologram of potency ratios for CXCL8 (THP-1 cells [3]; TNF stimulated THP-1 cells, compound and DEX titrated at same molarity (FIG. 5D)): demonstrating synergy
CXCL8 production. Relative to LPS (purchased) (THP-1 cells [4]): 47.1%
% Cellular Viability (Purchased) (THP-1 cells [5]): 98.7%
